Experimental data from patent publication US20040018501A1, “Methods and systems for analyzing complex biological systems” (priority 2001, published 2004).

System: Saccharomyces cerevisiae wild type strain BY4743
Assay: AF1 yeast metabolite analysis by GC-MS and LC-MS
Type: cell-based
Details: for Fold Change, NacetylLglutamate: detected metabolite NacetylLglutamate; for Fold Change, NacetylLornithine: detected metabolite NacetylLornithine; for Fold Change, nicotinic acid: detected metabolite nicotinic acid; for Fold Change, nopaline: detected metabolite nopaline; for Fold Change, oleic acid: detected metabolite oleic acid; for Fold Change, ornithine: detected metabolite ornithine; for Fold Change, phenylalanine: detected metabolite phenylalanine; for Fold Change, phosphoenolpyruvate: detected metabolite phosphoenolpyruvate; for Fold Change, pipecolic acid: detected metabolite pipecolic acid; for Fold Change, proline: detected metabolite proline; for Fold Change, pyridoxine: detected metabolite pyridoxine; for Fold Change, selenoDLmethionine: detected metabolite selenoDLmethionine; for Fold Change, serine: detected metabolite serine; for Fold Change, sugar-phosphate: detected metabolite sugar-phosphate; for Fold Change, tetradecanoic acid: detected metabolite tetradecanoic acid; for Fold Change, threonine/homoserin: detected metabolite threonine/homoserin; for Fold Change, thymine: detected metabolite thymine; for Fold Change, tryptophan: detected metabolite tryptophan; for Fold Change, tyrosine: detected metabolite tyrosine; for Fold Change, urocanic acid: detected metabolite urocanic acid; for Fold Change, valine: detected metabolite valine; for Fold Change, zeatin: detected metabolite zeatin

CC[C@@H]([C@H](C)O)n1ncn(-c2ccc(N3CCN(c4ccc(OC[C@@H]5CO[C@@](Cn6cncn6)(c6ccc(F)cc6F)C5)cc4)CC3)cc2)c1=O [Posaconazole]
Fold Change of alanine (GC): 1.035
Fold Change of asparagine (GC): 0.145
Fold Change of aspartic acid (GC): −0.071
Fold Change of campesterol (GC): 0
Fold Change of desmosterol (GC): 0
Fold Change of disaccaride1 (GC): 0.04733
Fold Change of disaccaride2 (GC): 0.313
Fold Change of disaccaride3 (GC): 0.3407
Fold Change of ergosterol (GC): 0.808
Fold Change of fucosterol (GC): 6.722
Fold Change of glutamine (GC): 0.6439
Fold Change of glycanopyrose (GC): 1.594
Fold Change of glycerol (GC): 0.1873
Fold Change of glycine (GC): 0.08267
Fold Change of hexadecanoic acid (GC): −0.01867
Fold Change of iso citric acid (GC): 0.4
Fold Change of isoleucine (GC): 0.1023
Fold Change of lanosterol (GC): 7.464
Fold Change of leucine (GC): 0.334
Fold Change of lysine (GC): 0.1586
Fold Change of malic acid (GC): 0.2942
Fold Change of biotin (LC): 0
Fold Change of folic acid (LC): 0
Fold Change, NacetylDglucosamine (detected metabolite NacetylDglucosamine, platform nLC): 0
Fold Change, NacetylLglucosamine (detected metabolite NacetylLglucosamine, platform pLC): 0
Fold Change, NacetylLglutamate (platform nLC): −0.07165
Fold Change, NacetylLglutamate (platform pLC): 0
Fold Change, NacetylLornithine (platform nLC): 0
Fold Change, NacetylLornithine (platform pLC): 0.1338
Fold Change, TMS mevalonic acid lactone (detected metabolite TMS mevalonic acid lactone, platform GC): −0.3118
Fold Change, mevalonic acid lactone (detected metabolite mevalonic acid lactone, platform GC): 0.5555
Fold Change, mevalonic lactone (detected metabolite mevalonic lactone, platform pLC): −0.08368
Fold Change, niacinamide (detected metabolite niacinamide, platform pLC): 0
Fold Change, nicotinic acid (platform nLC): 1.421
Fold Change, nicotinic acid (platform pLC): −0.8142
Fold Change, nopaline (platform nLC): 0.7554
Fold Change, nopaline (platform pLC): 0
Fold Change, octadecanoic acid (detected metabolite octadecanoic acid, platform GC): 0.321
Fold Change, oleic acid (platform GC): −0.5057
Fold Change, oleic acid (platform nLC): 0.5606
Fold Change, ornithine2 (detected metabolite ornithine2, platform GC): −0.1383
Fold Change, ornithine3 (detected metabolite ornithine3, platform GC): 0.041
Fold Change, ornithine (platform nLC): 2.314
Fold Change, ornithine (platform pLC): 0.4314
Fold Change, orotic acid (detected metabolite orotic acid, platform nLC): 0
Fold Change, palmiteliadic acid (detected metabolite palmiteliadic acid, platform GC): −0.2453
Fold Change, palmitic acid (detected metabolite palmitic acid, platform nLC): 0.1518
Fold Change, phenylalanine (platform GC): 0.06069
Fold Change, phenylalanine (platform nLC): −0.03702
Fold Change, phenylalanine (platform pLC): −0.1585
Fold Change, phenylpyruvic acid (detected metabolite phenylpyruvic acid, platform nLC): 0
Fold Change, phosphate (detected metabolite phosphate, platform GC): −0.1833
Fold Change, phosphoenolpyruvate (platform LC): 0
Fold Change, phosphoenolpyruvate (platform nLC): 0
Fold Change, pinitol (detected metabolite pinitol, platform nLC): 0
Fold Change, pipecolic acid (platform nLC): 0.1806
Fold Change, pipecolic acid (platform pLC): 0.3444
Fold Change, progesterone (detected metabolite progesterone, platform pLC): 0
Fold Change, proline (platform LC): 0.3157
Fold Change, proline (platform nLC): 0.3147
Fold Change, pyridoxine (platform nLC): −0.1015
Fold Change, pyridoxine (platform pLC): −0.239
Fold Change, pyrimidine (detected metabolite pyrimidine, platform GC): 0.159
Fold Change, retinoic acid (detected metabolite retinoic acid, platform nLC): 0
Fold Change, riboflavin (detected metabolite riboflavin, platform pLC): 0
Fold Change, salicylic/HObenzoic (detected metabolite salicylic/HObenzoic, platform nLC): 0
Fold Change, selenoDLmethionine (platform nLC): −0.6722
Fold Change, selenoDLmethionine (platform pLC): −0.7083
Fold Change, serine (platform nLC): 0.152
Fold Change, serine (platform pLC): 0.2417
Fold Change, shikimic acid (detected metabolite shikimic acid, platform nLC): 0
Fold Change, sinapinic acid (detected metabolite sinapinic acid, platform nLC): 0
Fold Change, sorbitol/mannitol (detected metabolite sorbitol/mannitol, platform nLC): 0.009121
Fold Change, squalene (detected metabolite squalene, platform GC): 0.07431
Fold Change, succinic (detected metabolite succinic, platform nLC): −0.06141
Fold Change, sucrose (detected metabolite sucrose, platform nLC): 0.1847
Fold Change, sugar-phosphate (platform nLC): −0.04543
Fold Change, sugar-phosphate (platform pLC): 0
Fold Change (detected metabolite sugar?, platform GC): 0.6923
Fold Change, tetradecanoic acid (platform GC): −0.214
Fold Change, tetradecanoic acid (platform nLC): 1.029
Fold Change, thiamine (detected metabolite thiamine, platform pLC): 0
Fold Change, threonine2 (detected metabolite threonine2, platform GC): 0.457
Fold Change, threonine3 (detected metabolite threonine3, platform GC): 0.225
Fold Change, threonine/homoserin (platform nLC): 0.04034
Fold Change, threonine/homoserin (platform pLC): 0.1437
Fold Change, thymine (platform nLC): 0
Fold Change, thymine (platform pLC): 0
Fold Change, tms glutamine3 (detected metabolite tms glutamine3, platform GC): 0.6709
Fold Change, tms lysine4 (detected metabolite tms lysine4, platform GC): 0.05667
Fold Change, tms tyrosine2 (detected metabolite tms tyrosine2, platform GC): 1.228
Fold Change, tms tyrosine3 (detected metabolite tms tyrosine3, platform GC): 0.1911
Fold Change, tryptophan (platform nLC): 4.676
Fold Change, tryptophan (platform pLC): 0
Fold Change, tyrosine (platform nLC): 0.0282
Fold Change, tyrosine (platform pLC): 0.1008
Fold Change, uracil (detected metabolite uracil, platform nLC): −0.2779
Fold Change, uric acid (detected metabolite uric acid, platform pLC): 0
Fold Change, uridine (detected metabolite uridine, platform nLC): 0.02855
Fold Change, urocanic acid (platform nLC): 0
Fold Change, urocanic acid (platform pLC): 0
Fold Change, valine (platform GC): 0.345
Fold Change, valine (platform nLC): 0.0195
Fold Change, xanthosine(diH2O) (detected metabolite xanthosine(diH2O), platform pLC): 0
Fold Change, xanthosineDiH2O (detected metabolite xanthosineDiH2O, platform nLC): 0
Fold Change, zeatin (platform nLC): 0
Fold Change, zeatin (platform pLC): 0
Fold Change of 2-ketobutyric acid (nLC): −0.9992
Fold Change of 2-ketoglutaric (nLC): 11.33
Fold Change of 3-indolylacetonitri (nLC): −0.9998
Fold Change of 4-methylcatechol (nLC): 0
Fold Change of 4aminobutyrate/dimg (nLC): −0.008939
Fold Change of 5hydroxyLtryptophan (nLC): 0
Fold Change of 6-benzylaminopurine (nLC): 0
Fold Change of DLaminoadipic acid (nLC): −0.9935
Fold Change of abscisic acid (nLC): 0
Fold Change of aconitic acid (nLC): 1.874
Fold Change of adenine (nLC): 0
Fold Change of adenosine (nLC): 128.3
Fold Change of alanine (nLC): 0.1091
Fold Change of allantoic acid (nLC): 0.3321
Fold Change of allantoin (nLC): 5.97
Fold Change of anthranilic acid (nLC): 0
Fold Change of arginine (nLC): 0.1707
Fold Change of argininosuccinate (nLC): 318.3
Fold Change of asparagine (nLC): 0.006865
Fold Change of aspartic (nLC): 0.305
Fold Change of benzoic acid (nLC): 0
Fold Change of biotin (nLC): −0.9992
Fold Change of caffeic acid (nLC): −0.49
Fold Change of catechol (nLC): 0
Fold Change of cinnamic acid (nLC): 0
Fold Change of citricanoic/itaconi (nLC): 0
Fold Change of citrulline (nLC): 1160
Fold Change of coumaric acid (nLC): 0
Fold Change of cytidine (nLC): −0.9986
Fold Change of cytosine (nLC): 0
Fold Change of decanoic acid (nLC): 0.1263
Fold Change of diaminopimelic acid (nLC): 0
Fold Change of dihydrofolic acid (nLC): 0
Fold Change of estrone (nLC): 0
Fold Change of farnesol (nLC): 0
Fold Change of folic acid (nLC): 0
Fold Change of fumaric/3m2oxobutan (nLC): −0.9997
Fold Change of gallic acid (nLC): 0.4414
Fold Change of gibberellic (nLC): 0
Fold Change of glucosamine6PO4 (nLC): −0.9951
Fold Change of glutamic/acetylseri (nLC): 0.3222
Fold Change of glutamine/lysine (nLC): 0.09814
Fold Change of guanine (nLC): 0
Fold Change of guanosine (nLC): −0.993
Fold Change of histidine (nLC): 0
Fold Change of homogentisic/uric (nLC): 0
Fold Change of hydrocortisone (nLC): 0
Fold Change of hypoxanthine (nLC): 0.1751
Fold Change of indole3pyruvic acid (nLC): 0
Fold Change of inostol/glucos/sorb (nLC): −0.493
Fold Change of isocitric/citric/qu (nLC): 1.711
Fold Change of jasmonic acid (nLC): 0
Fold Change of kinetin (nLC): 0
Fold Change of lactic acid (nLC): 0.5987
Fold Change of lauric acid (nLC): 0.9833
Fold Change of leucine/isoleucine/ (nLC): 0.03158
Fold Change of luteolin (nLC): 0
Fold Change of malic acid (nLC): 0.3101
Fold Change of malonic acid (nLC): 0
Fold Change of menthol* (nLC): 0.08121
Fold Change of methionine (nLC): 0
Fold Change of 4-aminobenzoic acid (pLC): 0
Fold Change of 4-methylcatechol (pLC): 0
Fold Change of 4ambutyrate/dimglyc (pLC): 31.37
Fold Change of 5hydroxyLtryptophan (pLC): 0
Fold Change of 6benzylaminopurine (pLC): 0
Fold Change of DL-aminoadipic acid (pLC): 1.685
Fold Change of abscisic acid (pLC): 0
Fold Change of adenine (pLC): −0.0145
Fold Change of adenosine (pLC): 0
Fold Change of alanine/sarcosine (pLC): 0.1013
Fold Change of allantoic acid (pLC): 0
Fold Change of anthranilic acid (pLC): 0
Fold Change of arginine (pLC): 0.03383
Fold Change of argininosuccinate (pLC): 0
Fold Change of asparagine (pLC): 0.4302
Fold Change of aspartic acid (pLC): 0.3626
Fold Change of caffeine (pLC): 0
Fold Change of citric acid TME (pLC): 0
Fold Change of citrulline (pLC): 0.1011
Fold Change of cytidine (pLC): 0
Fold Change of cytosine (pLC): 1135
Fold Change of diaminopimelic acid (pLC): 0
Fold Change of dihydrofolic acid (pLC): 0
Fold Change of dipicolinic acid (pLC): 0
Fold Change of glucosamine (pLC): 0
Fold Change of glucosamine6PO4 (pLC): 0
Fold Change of glutamate (pLC): 0.3769
Fold Change of glutamine/lysine (pLC): 0.303
Fold Change of glutathione (pLC): 0.0101
Fold Change of guanosine (pLC): 0.04655
Fold Change of histidine (pLC): 0
Fold Change of hydrocortisone (pLC): 0
Fold Change of hypoxanthine (pLC): 0.135
Fold Change of itaconic acid dimes (pLC): 0
Fold Change of kinetin (pLC): 0
Fold Change of leucine/isoleucine/ (pLC): 0.04937
Fold Change of mannitol (pLC): 0.3919
Fold Change of methionine (pLC): −0.3997
